Measured values from ChEMBL document CHEMBL3301361, “Experimental in vitro DMPK and physicochemical data on a set of publicly disclosed compounds”.
Converted amounts (≈) assume the structure as drawn.

Test: physchem
Conditions: pH 7.4 buffer

solubility thermodynamic [µM] | SMILES
363 (≈ 80.3 µg/mL) | COc1ccc(Cc2nnc(N)s2)cc1
436 (≈ 85.2 µg/mL) | CCSc1nc2c(N)ncnc2[nH]1
1.7 (≈ 0.684 µg/mL) | CC(=O)N1CCC(n2cc(-c3cnc(N)c(-c4nc5ccccc5o4)c3)cn2)CC1
2.1 (≈ 0.751 µg/mL) | CC(=O)n1c2ccccc2c2cc(NC(=O)CCc3ccncc3)ccc21
1.7 (≈ 1.02 µg/mL) | Cc1cc(C)cc(-c2[nH]c3sc(C(C)(C)C(=O)N4C5CCC4CC5)cc3c2CN2CCN(CC(=O)N3CCCC3)CC2)c1
4.3 (≈ 1.87 µg/mL) | COc1cc(CCc2cc(Nc3ccnc(NCc4cc(C)on4)n3)n[nH]2)cc(OC)c1
2 (≈ 0.845 µg/mL) | COc1cc2ncnc(Nc3cnn(CC(=O)Nc4cccc(F)c4)c3)c2cc1OC
22.9 (≈ 5.39 µg/mL) | Cc1ccc2nc(-c3ccccc3)cc(O)c2c1
70.8 (≈ 44.6 µg/mL) | Cc1cc(C)cc(-c2[nH]c3sc(C(C)(C)C(=O)N4C5CCC4CC5)cc3c2C(=O)CN2CCN(CC(=O)N3CCCC3)CC2)c1
2.5 (≈ 0.798 µg/mL) | CCn1c2ccccc2c2cc(NC(=O)c3cc(C)on3)ccc21
26.3 (≈ 8.93 µg/mL) | NC1(c2ccc(-c3nn4cccc4cc3-c3ccccc3)cc2)CCC1
832 (≈ 178 µg/mL) | CC(=O)Nc1ccc(Br)cc1
112 (≈ 39.1 µg/mL) | Cc1c(Cc2ccc3ccccc3n2)c2cc(F)ccc2n1CC(=O)O [TIMAPIPRANT]
1.8 (≈ 0.834 µg/mL) | COc1cc(Oc2ncnc3cc(OC)c(OC)cc23)ccc1CC(=O)Nc1cn(C)nc1C
158 (≈ 35.9 µg/mL) | Oc1ncnc2c1cnn2Cc1ccccc1
43.7 (≈ 18.9 µg/mL) | COc1cc(-c2nn[nH]n2)ccc1Cn1ncc2ccc(NC(=O)OC3CCCC3)cc21
21.4 (≈ 7.98 µg/mL) | O=C(NC1C2CC3CC(C2)CC1C3)[C@H]1CCCN1Cc1ccc(Cl)cc1 (some centres undefined)
525 (≈ 201 µg/mL) | Fc1ccc(CN2CCN(C3=Nn4c(nnc4C(F)(F)F)CC3)CC2)cc1
5.8 (≈ 2.06 µg/mL) | CCOc1ccccc1C(=O)N1CCC(C(=O)c2ccc(F)cc2)CC1
166 (≈ 76.7 µg/mL) | COCCN(Cc1cc2c(Nc3cccc(Cl)c3F)ncnc2cc1OC)[C@@H](C)C(N)=O
141 (≈ 40.9 µg/mL) | O=S(=O)(NCc1ccccc1)c1cccc2nonc12
2.3 (≈ 1.58 µg/mL) | CCN(C(=O)Cc1ccc(S(C)(=O)=O)cc1)C1CCN(CCC(c2ccccc2)c2ccc(NS(=O)(=O)Cc3ccccc3)cc2)CC1 (centres undefined)
74.1 (≈ 20.6 µg/mL) | COc1ccc(OC)c(NC(=O)Cc2cccs2)c1
38 (≈ 25 µg/mL) | CC(C)OC(=O)c1cn(Cc2c(F)cccc2F)c2sc(-c3ccc(NC(=O)C(C)C)cc3)c(CN(C)Cc3ccccc3)c2c1=O
0.9 (≈ 0.261 µg/mL) | c1ccc(NCc2ccc(CNc3ccccn3)cc2)nc1
1350 (≈ 288 µg/mL) | O=C(Nc1ccccc1)Nc1ccncc1

solubility thermodynamic [µM] | SMILES
1100 (≈ 437 µg/mL) | CS(=O)(=O)c1ccc2c(c1)cc(C(=O)O)n2Cc1ccc(Cl)c(Cl)c1
661 (≈ 277 µg/mL) | CC1(c2c(C(=O)NC3C4CC5CC(C4)CC3C5)cnn2-c2ccc(C(=O)O)cc2)CC1 (centres undefined)
15.8 (≈ 3.51 µg/mL) | c1ccc(-c2nnc(-c3ccccc3)o2)cc1
14.5 (≈ 5.27 µg/mL) | O=C(c1ccc(F)cc1)C1CCN(C(=O)c2ccc(F)cc2Cl)CC1
2.1 (≈ 0.875 µg/mL) | COc1cc(OC2CCN(C)CC2)c2c(Nc3ccc(F)c(Cl)c3)ncnc2c1
0.3 (≈ 0.158 µg/mL) | C[C@@H](Oc1cccc2ncnc(Nc3ccc4c(cnn4Cc4cccc(F)c4)c3)c12)C(=O)N1CCOCC1
0.6 (≈ 0.29 µg/mL) | COCCOc1cc2ncnc(Nc3ncc(CC(=O)Nc4cccc(F)c4)s3)c2cc1OC
4.5 (≈ 2.31 µg/mL) | OC1CCN(CCOc2n[nH]c3ncnc(Nc4ccc(OCc5cccc(F)c5)c(Cl)c4)c23)CC1
42.7 (≈ 20.2 µg/mL) | C[C@H](Oc1cccc2ncnc(Nc3ccc4c(cnn4Cc4cscn4)c3)c12)C(=O)N(C)C
170 (≈ 54.7 µg/mL) | CCn1cnc(-c2ccccc2)c1-c1nc2c(N)ncnc2s1
0.3 (≈ 0.137 µg/mL) | COc1cc2c(NC(=O)Nc3ccccc3Cl)ncnc2cc1OCC1CCN(C)CC1
1230 (≈ 307 µg/mL) | Clc1ccc(-c2nnc(CNC3CC3)o2)cc1
20.4 (≈ 6.64 µg/mL) | Cc1ccc(C(=O)N2CCC(C(=O)c3ccc(F)cc3)CC2)cc1
457 (≈ 282 µg/mL) | CCN(C(=O)Cc1ccc(S(C)(=O)=O)cc1)C1CCN(CCC(c2ccccc2)C2CCN(S(=O)(=O)CC)CC2)CC1 (centres undefined)
10 (≈ 4 µg/mL) | COc1cc2ncnc(Nc3ccc(NC(=O)c4ccccc4)cc3)c2cc1OC [ANILINOQUINAZOLINE1]
912 (≈ 356 µg/mL) | N#CC1(NC(=O)[C@@H]2CCCC[C@H]2C(=O)N2CCc3[nH]c4ccccc4c3C2)CC1
1510 (≈ 859 µg/mL) | CCN(C(=O)Cc1ccc(S(C)(=O)=O)cc1)C1CCN(CCC(c2ccccc2)C2CCN(C(C)=O)CC2)CC1 (centres undefined)
123 (≈ 58.4 µg/mL) | N#CC1(NC(=O)[C@@H]2CCCC[C@H]2C(=O)N2CCc3[nH]c4c(OC(F)(F)F)cccc4c3C2)CC1
2.4 (≈ 1.18 µg/mL) | COc1cc(N2CCCN(C(C)=O)CC2)ccc1Nc1ncc(Cl)c(-c2cnc3ccccn23)n1
158 (≈ 71.7 µg/mL) | CN(C)CCCNS(=O)(=O)c1ccc(Nc2nccc(-c3cnc4cccnn34)n2)cc1
112 (≈ 72.5 µg/mL) | Cc1cc(C)cc(-c2[nH]c3sc(C(C)(C)C(=O)N4C5CCC4CC5)cc3c2CCN2CCC(CNC(=O)N3CCOCC3)CC2)c1
83.2 (≈ 36 µg/mL) | CC(C)c1ccc2[nH]c3c(c2c1)CN(C(=O)[C@@H]1CCCC[C@H]1C(=O)NC1(C#N)CC1)CC3
209 (≈ 45.8 µg/mL) | COc1cc2cc(O)nc(C)c2cc1OC
26.3 (≈ 12 µg/mL) | Cc1ccc(Oc2ccc(Nc3ncnc4cccc(O[C@@H](C)C(=O)N(C)C)c34)cc2C)cn1
0.9 (≈ 0.429 µg/mL) | C[C@@H]1CN(c2ncc(OCc3ccc(S(C)(=O)=O)cc3)cn2)[C@@H](C)CN1C(=O)OC(C)(C)C

The remaining lines, values behind:

SMILES | solubility thermodynamic [µM]
CC(C)Cn1c2ccccc2c2cc(C(=O)O)ccc21 | 219 (≈ 58.5 µg/mL)
COc1cc(N2CCN(C(=O)[C@@H]3CCCC[C@H]3C(=O)NC3(C#N)CC3)[C@H](C)C2)ccc1C1CC1 | 204 (≈ 94.9 µg/mL)
CC(=O)NC1CCN(C(=O)CN2CCN(CCc3c(-c4cc(C)cc(C)c4)[nH]c4sc(C(C)(C)C(=O)N5C6CCC5CC6)cc34)CC2)C1 (centres undefined) | 107 (≈ 72.1 µg/mL)
CCN(C(=O)Cc1ccc(S(C)(=O)=O)cc1)C1CCN(CCC(c2ccccc2)N2CCN(c3cccc(F)c3)CC2)CC1 (centres undefined) | 144 (≈ 89.7 µg/mL)
Cc1ccc(CO)cc1N(C)c1ccnc(Nc2cc(N3CCOCC3)cc(S(C)(=O)=O)c2)n1 | 15.8 (≈ 7.64 µg/mL)
O=C(O)c1cc2ccccc2n1Cc1cccc(Cl)c1 | 1200 (≈ 344 µg/mL)
COc1cc(Nc2cc(Oc3ccc(C)nc3C)ccn2)cc(OC)c1OC | 6.8 (≈ 2.59 µg/mL)
Cn1cncc1[C@@](N)(c1ccc(Cl)cc1)c1ccc2c(c1)c(-c1cccc(Cl)c1)cc(=O)n2C [TIPIFARNIB] | 9.5 (≈ 4.65 µg/mL)
C[C@H]1CN(C(=O)OC(C)(C)C)CCN1c1ncc(OCc2ccc(S(C)(=O)=O)cc2)cn1 | 2.3 (≈ 1.06 µg/mL)
Cc1c(Br)sc2nc(O)c(-c3ccccc3)c(O)c12 | 3.9 (≈ 1.31 µg/mL)
CNS(=O)(=O)c1ccc(Nc2nccc(-c3cnc(C)n3C)n2)cc1 | 2.7 (≈ 0.968 µg/mL)
CNC(=O)c1c(-c2ccc(F)cc2)oc2cc(N(CCO)S(C)(=O)=O)c(C3CC3)cc12 [NESBUVIR] | 60.3 (≈ 26.9 µg/mL)
COc1ccc(-c2cc(N)c(C(N)=O)s2)cc1 | 30.9 (≈ 7.67 µg/mL)
O=[N+]([O-])c1ccc(CCl)cc1 | 501 (≈ 86 µg/mL)
COc1ccc2[nH]c(=O)c3c(c2c1)OC(C)(C)C=C3 [HAPLAMINE] | 87.1 (≈ 22.4 µg/mL)
Cc1cc(C)cc(-c2[nH]c3sc(C(C)(C)C(=O)N4C5CCC4CC5)cc3c2CCN2CCC(C(=O)N3CCOCC3)C(C)C2)c1 (centres undefined) | 33.1 (≈ 20.9 µg/mL)
C[C@@H](Oc1cccc2ncnc(Nc3ccc4c(cnn4Cc4cscn4)c3)c12)C(=O)N(C)C | 43.7 (≈ 20.7 µg/mL)
O=S(=O)(Nc1ccncc1)c1ccccc1 | 794 (≈ 186 µg/mL)
C[C@@H](Oc1cccc2ncnc(Nc3ccc4c(cnn4Cc4cccc(F)c4)c3)c12)C(=O)N(C)C | 2.6 (≈ 1.26 µg/mL)
Cc1ccccc1C(=O)Nc1ccccc1 | 186 (≈ 39.3 µg/mL)
COc1cc2c(Nc3cnc(NC(=O)c4ccccc4)nc3)ncnc2cc1OC[C@@H](O)CN1CCCCC1 | 1510 (≈ 802 µg/mL)
NC(=O)Nc1sc(-c2ccccc2)cc1C(=O)Nc1ccccc1 | 0.6 (≈ 0.202 µg/mL)

SMILES | solubility thermodynamic [µM]
O=c1cc(-c2cccc3c2Sc2ccccc2S3)oc(N2CCOCC2)c1 [KU-55933] | 7.1 (≈ 2.81 µg/mL)
NC(=O)Nc1sc(-c2ccc(F)cc2)cc1C(N)=O | 67.6 (≈ 18.9 µg/mL)
COc1cc2c(Nc3c(Cl)ccc4c3OCO4)ncnc2cc1OCCCN1CCOCC1 | 70.8 (≈ 33.5 µg/mL)
Cc1cc(C)c(C(=O)N[C@@H](CNC(=O)CO[C@@H]2C[C@@H](CNc3ccccn3)N(C(=O)OCc3ccccc3)C2)C(=O)O)c(C)c1 | 389 (≈ 240 µg/mL)
COc1cc(Oc2ccnc3cc(OC)c(OC)cc23)ccc1CC(=O)Nc1cn(C)nc1C | 8.9 (≈ 4.12 µg/mL)
O=C(CC(c1ccccc1)S(=O)(=O)c1ccccc1)c1ccccc1 (centres undefined) | 1.1 (≈ 0.385 µg/mL)
CN(C(=O)Cc1ccc(S(C)(=O)=O)cc1)[C@@H]1CCN(Cc2nc3ccccc3s2)C[C@@H]1F | 9.1 (≈ 4.33 µg/mL)
O=C(O)COc1ccc(OCCNC[C@H](O)COc2ccccc2)cc1 | 1020 (≈ 370 µg/mL)
CCCCOc1ccc(-c2cc(=O)c3ccccc3[nH]2)cc1 | 1.6 (≈ 0.469 µg/mL)
Nc1n[nH]c(S(=O)(=O)CCCc2ccccc2)n1 | 575 (≈ 153 µg/mL)
COc1cc(N2CC3COCC(C2)N3)ccc1Nc1ncc(Cl)c(-c2cnc3ccccn23)n1 | 2.6 (≈ 1.24 µg/mL)
COc1cccc(C(=O)N2CCC(C(=O)c3ccc(F)cc3)CC2)c1 | 58.9 (≈ 20.1 µg/mL)
Cc1cc(OC2CCN(CC3CCN([C@@](C)(Cc4ccc(F)cc4)C(=O)O)CC3)CC2)ccc1Cl | 204 (≈ 103 µg/mL)
COc1ccccc1NC(=O)c1cc2ccccc2cc1O | 0.9 (≈ 0.264 µg/mL)
O=C(c1ccccc1)N1CCc2ccccc21 | 91.2 (≈ 20.4 µg/mL)
CC(C)N1CCN(Cc2cnc(-c3ccc(C(=O)Nc4ccccc4N)cc3)c(C#N)c2)CC1 | 1350 (≈ 613 µg/mL)
COc1cc(OC2CNC2)ccc1Nc1ncc(Cl)c(-c2cnc3ccccn23)n1 | 81.3 (≈ 34.4 µg/mL)
COCCN(C)C(=O)[C@@H](C)Oc1cccc2ncnc(Nc3ccc(Oc4ccc(C)nc4)c(C)c3)c12 | 11.2 (≈ 5.62 µg/mL)
CC(C)Cc1nc(-c2ccccc2)c(-c2ccc(CN3CCC(n4c(=O)[nH]c5ccccc54)CC3)cc2)nc1O | 1.6 (≈ 0.854 µg/mL)
CNc1cccc(CCOc2ccc(C[C@H](NC(=O)c3c(Cl)cncc3Cl)C(=O)O)cc2)n1 | 1350 (≈ 660 µg/mL)
Cc1ccc(C(=O)N2CCC(C(=O)c3c(C)cc(C)cc3C)CC2)cc1 | 9.3 (≈ 3.25 µg/mL)
